Among the data in PubChem BioAssay AID248 (DTP/NCI, 2004) are T/C values, retold here.

The subject of this experiment is L1210 leukemia ip in BDF1 mice, survival T/C. Description: NCI In Vivo Anticancer Drug Screen. Data for tumor model L1210 Leukemia (intraperitoneal) in B6D2F1 (BDF1) mice. The conditions noted are these: endpoint: mean survival time, higher = longer survival. In a few lines:
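Each compound was tested against a transplantable tumor grown in mice. The endpoint was survival, with treated animals benchmarked against vehicle controls as a simple ratio.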

The mark [1] stands for this setting: dose: 25.0 mg/kg/injection, schedule: Q04DX003 (ip), vehicle: saline with Tween-80.
[2] abbreviates: dose: 50.0 mg/kg/injection, schedule: Q01DX009 (ip), vehicle: saline with Tween-80.
Setting [3] is: dose: 50.0 mg/kg/injection, schedule: Q04DX003 (ip), vehicle: saline with Tween-80.
[4] abbreviates: dose: 100.0 mg/kg/injection, schedule: Q01DX009 (ip), vehicle: saline with Tween-80.
[5] abbreviates: dose: 100.0 mg/kg/injection, schedule: Q04DX003 (ip), vehicle: saline with Tween-80.
[6] abbreviates: dose: 100.0 mg/kg/injection, schedule: Q04DX002 (ip), vehicle: saline with Tween-80.
The mark [7] stands for this setting: dose: 100.0 mg/kg/injection, schedule: Q01DX001 (ip), vehicle: saline.
Where [8] appears, read: dose: 200.0 mg/kg/injection, schedule: Q01DX001 (ip), vehicle: saline.
[9] abbreviates: dose: 400.0 mg/kg/injection, schedule: Q01DX001 (ip), vehicle: saline.
Setting [10] is: dose: 100.0 mg/kg/injection, schedule: Q04DX003 (ip), vehicle: Klucel (hydroxypropylcellulose) (HPC).
[11] abbreviates: dose: 100.0 mg/kg/injection, schedule: Q01DX009 (ip), vehicle: other.
Setting [12] is: dose: 200.0 mg/kg/injection, schedule: Q01DX009 (ip), vehicle: other.
The mark [13] stands for this setting: dose: 400.0 mg/kg/injection, schedule: Q01DX009 (ip), vehicle: other.
[14] abbreviates: dose: 200.0 mg/kg/injection, schedule: Q04DX003 (ip), vehicle: Klucel (hydroxypropylcellulose) (HPC).
The mark [15] stands for this setting: dose: 400.0 mg/kg/injection, schedule: Q04DX003 (ip), vehicle: Klucel (hydroxypropylcellulose) (HPC).
Setting [16] is: dose: 200.0 mg/kg/injection, schedule: Q04DX002 (ip), vehicle: saline with Tween-80.
Where [17] appears, read: dose: 400.0 mg/kg/injection, schedule: Q04DX002 (ip), vehicle: saline with Tween-80.
Where [18] appears, read: dose: 12.5 mg/kg/injection, schedule: Q01DX009 (ip), vehicle: saline.
Setting [19] is: dose: 25.0 mg/kg/injection, schedule: Q01DX009 (ip), vehicle: saline.

Values joined by “and” are separate entries in the source; they are usually repeats but may differ in a detail not shown here. Equal entries are not always repeated. Toxic doses and inconclusive results are not listed.

In the case of `CN(C)/C=N\c1c(C#N)c(CC#N)nn1-c1ccccc1`, the T/C by setting is: (dose: 25.0 mg/kg/injection, schedule: Q01DX009 (ip), vehicle: saline with Tween-80) 98 % of control; under setting [1], 103 % of control; under setting [2], 100 % of control; under setting [3], 93 % of control; under setting [4], 88 % of control; under setting [5], 98 % of control and 99 % of control.

As for `O=N[O-].O=N[O-].[NH2-].[NH2-].[Pt+2]`, the T/C by setting is: (dose: 12.5 mg/kg/injection, schedule: Q01DX009 (ip), vehicle: Klucel (hydroxypropylcellulose) (HPC)) 103 % of control; (dose: 25.0 mg/kg/injection, schedule: Q01DX009 (ip), vehicle: Klucel (hydroxypropylcellulose) (HPC)) 106 % of control; (dose: 50.0 mg/kg/injection, schedule: Q01DX009 (ip), vehicle: Klucel (hydroxypropylcellulose) (HPC)) 106 % of control.

With `CCCCC#C/C(C)=N\Nc1ccc([N+](=O)[O-])cc1[N+](=O)[O-]`, the T/C was 98 % of control (dose: 50.0 mg/kg/injection, schedule: Q04DX002 (ip), vehicle: saline with Tween-80) and 173 % of control under setting [6].

Take `O=C1COc2ccccc21`: the T/C is, setting by setting: (dose: 50.0 mg/kg/injection, schedule: Q01DX001 (ip), vehicle: saline) 97 % of control; under setting [7], 100 % of control; under setting [8], 100 % of control; under setting [9], 100 % of control.

In the case of `O=C(O)c1ccc(N=Cc2ccc([N+](=O)[O-])s2)cc1`, the T/C is 94 % of control under setting [1], 100 % of control under setting [3], 103 % of control under setting [10] and 102 % of control under setting [5].

For the compound `CCCCCCCCCC(=O)c1nc(N)nc(N)n1`, the T/C was 105 % of control under setting [2]; 105 % of control under setting [4]; 97 % of control (dose: 200.0 mg/kg/injection, schedule: Q01DX009 (ip), vehicle: saline with Tween-80).

In the case of `N#C/C(N)=C(\C#N)N=Cc1ccc(-c2ccccc2)cc1`, the T/C by setting is: (dose: 100.0 mg/kg/injection, schedule: Q01DX001 (ip), vehicle: saline with Tween-80) 97 % of control; (dose: 200.0 mg/kg/injection, schedule: Q01DX001 (ip), vehicle: saline with Tween-80) 92 % of control; (dose: 400.0 mg/kg/injection, schedule: Q01DX001 (ip), vehicle: saline with Tween-80) 93 % of control.

As for `NCC1OC(n2cnc3c(=O)[nH]c(N)nc32)C(O)C1O` (stereo not given), the T/C is 101 % of control under setting [7], 95 % of control under setting [8] and 91 % of control under setting [9].

Take `O=[N+]([O-])c1cccc2ncsc12`: the T/C is, setting by setting: under setting [11], 104 % of control; under setting [12], 107 % of control; under setting [13], 104 % of control.

Take `CS(=O)(=O)CCC(C#N)(CCS(C)(=O)=O)c1ccccc1`: the T/C by setting is: under setting [10], 110 % of control; under setting [14], 100 % of control; under setting [15], 102 % of control.

In the case of `CC(=O)OCCOc1ccccc1Cl`, the T/C is, setting by setting: under setting [6], 118 % of control; under setting [16], 108 % of control; under setting [17], 114 % of control.

Consider `CCC(C)(C)ON=O`, for which the T/C is 107 % of control under setting [6], 100 % of control under setting [16] and 96 % of control under setting [17].

For `COc1ccnc(SCc2ccccc2)n1`, the T/C by setting is: (dose: 100.0 mg/kg/injection, schedule: Q01DX009 (ip), vehicle: Klucel (hydroxypropylcellulose) (HPC)) 97 % of control; under setting [10], 100 % of control; (dose: 200.0 mg/kg/injection, schedule: Q01DX009 (ip), vehicle: Klucel (hydroxypropylcellulose) (HPC)) 95 % of control; under setting [14], 100 % of control; under setting [15], 102 % of control.

Consider `CCNC1C2CCC(C2)C1c1ccccc1` (stereo not given), for which the T/C was 94 % of control (dose: 3.12 mg/kg/injection, schedule: Q01DX009 (ip), vehicle: saline); 94 % of control (dose: 6.25 mg/kg/injection, schedule: Q01DX009 (ip), vehicle: saline); 89 % of control under setting [18]; 93 % of control under setting [19]; 89 % of control (dose: 25.0 mg/kg/injection, schedule: Q04DX003 (ip), vehicle: saline); 94 % of control (dose: 50.0 mg/kg/injection, schedule: Q04DX003 (ip), vehicle: saline).

In the case of `N#CCCN(CCC#N)/N=N\c1nc[nH]c1C(N)=O`, the T/C is 104 % of control (dose: 50.0 mg/kg/injection, schedule: Q01DX001 (ip), vehicle: water); 98 % of control (dose: 50.0 mg/kg/injection, schedule: Q04DX003 (ip), vehicle: water); 104 % of control (dose: 100.0 mg/kg/injection, schedule: Q01DX001 (ip), vehicle: other); 97 % of control (dose: 100.0 mg/kg/injection, schedule: Q01DX001 (ip), vehicle: water); 101 % of control under setting [11]; 104 % of control (dose: 100.0 mg/kg/injection, schedule: Q04DX003 (ip), vehicle: other). The T/C is 100 % of control (dose: 100.0 mg/kg/injection, schedule: Q04DX003 (ip), vehicle: water); 102 % of control (dose: 200.0 mg/kg/injection, schedule: Q01DX001 (ip), vehicle: other); 96 % of control (dose: 200.0 mg/kg/injection, schedule: Q01DX001 (ip), vehicle: water); 95 % of control under setting [12]; 105 % of control (dose: 200.0 mg/kg/injection, schedule: Q04DX003 (ip), vehicle: other); 102 % of control (dose: 200.0 mg/kg/injection, schedule: Q04DX003 (ip), vehicle: water). Moreover, the T/C (dose: 400.0 mg/kg/injection, schedule: Q01DX001 (ip), vehicle: other) is 102 % of control; the T/C (dose: 400.0 mg/kg/injection, schedule: Q01DX001 (ip), vehicle: water) was 101 % of control; the T/C under setting [13] was 93 % of control; the T/C (dose: 400.0 mg/kg/injection, schedule: Q04DX003 (ip), vehicle: other) is 98 % of control; the T/C (dose: 400.0 mg/kg/injection, schedule: Q04DX003 (ip), vehicle: water) is 97 % of control.

`CC1SCSCS1`: the T/C reads like this: under setting [10], 111 % of control; under setting [14], 88 % of control; under setting [15], 98 % of control.

On to `C[Se]c1ncnc2c1c(C#N)cn2C1OC(CO)C(O)C1O` (stereo not given), for which the T/C by setting is: (dose: 12.5 mg/kg/injection, schedule: Q01DX005 (ip), vehicle: saline) 123 % of control; under setting [18], 120 % of control; under setting [19], 124 % of control; (dose: 50.0 mg/kg/injection, schedule: Q01DX005 (ip), vehicle: saline) 120 % of control; (dose: 50.0 mg/kg/injection, schedule: Q01DX009 (ip), vehicle: saline) 94 % of control.

With `CC(C)c1ccc(C(C2C(=O)CC(C)(C)CC2=O)C2C(=O)CC(C)(C)CC2=O)cc1`, the T/C is, setting by setting: under setting [7], 103 % of control; under setting [8], 109 % of control; under setting [9], 107 % of control.

As to `O=NN(CCBr)C(=O)Nc1ccccc1`, the T/C runs as follows: (dose: 111.0 mg/kg/injection, schedule: Q01DX001 (ip), vehicle: carboxymethylcellulose (CMC)) 153 % of control; (dose: 222.0 mg/kg/injection, schedule: Q01DX001 (ip), vehicle: carboxymethylcellulose (CMC)) 161 % of control; (dose: 444.0 mg/kg/injection, schedule: Q01DX001 (ip), vehicle: carboxymethylcellulose (CMC)) 124 % of control.

`C=CCCCCCCCCC(=O)NCCCC(OCC)OCC`: the T/C reads like this: (dose: 100.0 mg/kg/injection, schedule: Q04DX003 (ip), vehicle: saline) 106 % of control; (dose: 200.0 mg/kg/injection, schedule: Q04DX003 (ip), vehicle: saline) 95 % of control; (dose: 400.0 mg/kg/injection, schedule: Q04DX003 (ip), vehicle: saline) 95 % of control.
